# Experimental data published in patent publication US7705022B2, “IDO inhibitors and methods of use thereof” (Lankenau Institute for Medical Research, priority 2005, dated 2010).
# Columns and labels:
# [1] = molecular target: human IDO (Homo sapiens, UniProt P14902); experiment: IDO inhibition assay (formation of kynurenine, read at 490 nm); type: biochemical; details: for Ki (IDO inhibition data) / Ki: average of two or three trials, inhibitors tested at 200 and 400 μM, L-Trp 200 to 25 μM, N.I. = no inhibition detected
# [2] = tested on: IDO; details: cited from earlier work; for type of IDO inhibition: literature
# Sequence of human IDO (P14902 whole entry): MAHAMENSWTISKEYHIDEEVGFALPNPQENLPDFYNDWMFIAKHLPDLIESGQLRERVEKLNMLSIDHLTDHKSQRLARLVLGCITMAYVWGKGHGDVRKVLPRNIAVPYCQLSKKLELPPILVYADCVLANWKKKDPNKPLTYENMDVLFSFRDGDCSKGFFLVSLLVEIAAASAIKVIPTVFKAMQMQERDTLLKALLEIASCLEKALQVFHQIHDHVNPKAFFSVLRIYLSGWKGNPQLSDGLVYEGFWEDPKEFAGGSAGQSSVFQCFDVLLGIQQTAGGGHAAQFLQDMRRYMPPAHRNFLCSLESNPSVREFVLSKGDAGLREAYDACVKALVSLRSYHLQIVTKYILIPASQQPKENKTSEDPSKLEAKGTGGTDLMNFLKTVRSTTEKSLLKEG
compound,measurement,setting,value
"CNC(=S)NCc1c[nH]c2ccccc12 [Compound 19, N-[l-(Indol-3-yl)methyl]-N′-methyl-thiourea]",IDO inhibitory activity in words,[1],weaker or no inhibition
same,Ki (IDO inhibition data),[1],N.I.^a
same,melting point,,148 to 150 °C
"CSC(=S)NCCc1ccccc1 [Compound 9, N-Phenethyl-S-methyl-dithiocarbamate]",IDO inhibitory activity in words,[1],significant inhibitory activity
same,Ki,[1],62.4 µM
c1ccc2c(c1)[nH]c1cnccc12 [β-carboline],type of IDO inhibition,[2],non-competitive
"CSC(=O)NCc1c[nH]c2ccccc12 [Compound 21, Brassitin, reference compound]",IDO inhibitory activity in words,[1],complete loss in inhibitory activity
same,Ki (IDO inhibition data),[1],N.I.
S=C(S)N1CCCC1 [pyrrolidine dithiocarbamate],effect on IDO in words,[2]; literature report,inhibits IDO
N-(Adamant-2-yl)-S-methyl-dithiocarbamate [Compound 6],Ki,[1],180 µM
CCCCc1cc2c(cn1)[nH]c1ccccc12 [3-butyl-β-carboline],Ki,[2]; literature value,3.3 µM
same,type of IDO inhibition,[2],non-competitive
